These results are taken from PMC11053168, “Agonist-selective activation of individual G-proteins by muscarinic receptors” (Scientific Reports, 2024).

The assay addresses T1, M2 receptor (Homo sapiens, UniProt P08172).
T1 sequence (P08172 1-466): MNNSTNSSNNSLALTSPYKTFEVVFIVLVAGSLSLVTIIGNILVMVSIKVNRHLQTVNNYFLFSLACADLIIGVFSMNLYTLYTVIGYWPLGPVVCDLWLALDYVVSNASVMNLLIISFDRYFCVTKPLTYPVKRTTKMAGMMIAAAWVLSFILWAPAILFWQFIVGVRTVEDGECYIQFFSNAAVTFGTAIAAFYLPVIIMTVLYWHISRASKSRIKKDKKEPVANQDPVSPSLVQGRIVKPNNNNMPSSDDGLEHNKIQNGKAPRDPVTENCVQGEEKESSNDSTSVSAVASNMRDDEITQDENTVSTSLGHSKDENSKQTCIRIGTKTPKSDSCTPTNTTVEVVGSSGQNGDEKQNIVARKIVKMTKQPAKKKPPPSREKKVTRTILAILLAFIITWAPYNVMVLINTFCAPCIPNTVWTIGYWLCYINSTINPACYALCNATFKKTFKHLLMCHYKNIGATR
In words: BRET real-time monitoring of G-protein activation via M2 in HEK293T/17 cells. It is filed as cell-based. Details: expressed in transfected cells; host or cells: HEK293T/17 cells, transient transfection. The note with it: for Activation of Gαi/o and Gα15 types: saturating concentration (100 μM; 1 mM for JB-12-2, JB-13-1). Here is the method: HE/K293T17 cells were obtained from The Global Bioresource Center ATCC (Manassas, VA, USA). Cells were grown in 100 mm petri dishes in Dulbecco’s modified Eagle’s medium (DMEM) supplemented with 10% fetal bovine serum (FBS), MEM non-essential amino acids, 1 mM sodium pyruvate, and antibiotics (100 units/ml penicillin and 100 μg/ml streptomycin) at 37 °C in a humidified incubator containing 5% CO2[41]. Transfection was performed according to Masuho et al.[41]. Culture dishes (3.5 cm) were coated by incubation for 10 min at 37 °C with 1 ml of Matrigel solution [approximately 10 μg/ml of growth factor-reduced Matrigel (BD biosciences; LOT: 2278001) in culture medium]. For transfections, cells were seeded in the 3.5 cm dishes containing the Matrigel solution at a density of 1.7 × 10^6 cells/dish. Four hours later, the cells were transfected with the appropriate expression constructs (total of 5 μg DNA per dish) with the reagents PLUS (5 μl/dish) and Lipofectamine LTX (Thermo Fisher Scientific; LOT: 2640614) (6 μl/dish). The cells were transfected with the Venus 156-239-Gβ1 (0.21 μg), Venus 1–155-Gγ2 (0.21 μg), and masGRK3ct-Nluc (0.21 μg) constructs in addition to the different amounts of constructs for the M2 receptor and Gα of interest. Gα14 subunit was co-transfected with Ric-8A chaperone (0.21 μg). Cells were cotransfected with a pcDNA3.1 construct encoding the catalytic subunit of pertussis toxin (PTX-S1) (0.21 μg) and constructs encoding Gα15, Gα14, Gα11, Gαq to ensure that the small BRET signals were not contaminated by the possible recruitment of endogenous Gαi/o proteins. The empty vector pcDNA3.1 was used to normalize the amount of DNA in each transfection.
To examine the activation of G-protein signalling in live cells, agonist-dependent cellular measurements of BRET between Venus-Gβ1γ2 and masGRK3ct-Nluc were performed as described by Masuho et al.[41]. […]. Cells were harvested by centrifugation at 500×g for 5 min and were resuspended in BRET buffer. About 50,000 to 100,000 cells per well were distributed in 96-well flat-bottomed white microplates (Greiner Bio-One) in a volume of 25 µl. 25 µl of 2× luciferase substrate: Nano-Glo™ luciferase assay substrate (Promega; LOT: 0000527335) dissolved in 250 volumes of BRET buffer was added. BRET measurements were made with a microplate reader (POLARstar Omega, BMG Labtech) equipped with two emission photomultiplier tubes, which enabled the detection of two emissions simultaneously with the highest possible resolution of 20 ms per data point. All measurements were performed at room temperature. The BRET signal was determined by calculating the ratio of the light emitted by Venus-Gβ1γ2 (535 nm with a 30 nm band path width) to the light emitted by masGRK3ct-Nluc (475 nm with a 30 nm band path width). The average baseline value (basal BRET ratio) recorded before stimulation of cells with an agonist was subtracted from the experimental BRET signal values to obtain the ΔBRET ratio.
The ΔBRET ratio from real-time monitoring of G-protein activation was fitted using monophasic association according to Eq. 9.9 Y=Beq×(1-exp-Kobs×x where y is the ΔBRET ratio of the light emitted by Venus-Gβ1γ2 (535/30) to the light emitted by masGRK3ct-Nluc (475/30). Beq is Y-value at the equilibrium expressing the maximal amplitude of ΔBRET ratio, x is time and Kobs is the observed rate of Gα subunit activation.

Take `C[N+](C)(C)CCOC(N)=O` [CBC, carbachol, reference compound]: the “Activation of Gαi/o and Gα15 types” value is “activated all tested Gαi/o types and promiscuous Gα15”. Where the note is “CBC 100 μM”, the “Maximal amplitude at Gi1 as % of GoA” value is recorded as ~ 25%. Turning to `c1csc(C[N+]23CCC(CC2)CC3)c1` [JB-8A], the “Activation of Gαi/o and Gα15 types” value is given as “did not detect”. For the compound `C[N+]1(Cc2cccs2)CCOCC1` [JB-12-2], under “saturating concentration (JR-6 100 μM, JB-12-2 1 mM)”, the “Activation of GoA and GoB, % of CBC magnitude” value is “approximately 12%”. As to `COC(=O)C1=CCCN(Cc2cccs2)C1` [JB-13-1], the “Activation of Gαi/o and Gα15 types” value is on record as “activated only GαoA”. The same measure, in the same setting: the value for `C[N+]1(Cc2ccc(Cl)s2)CC=CCC1` (stereo not drawn) [PN-152, 1-[(5-chlorothiophen-2-yl)methyl]-1-methyl-1,2,3,6-tetrahydropyridin-1-ium] was “did not detect”.
